# Assay results as given in patent EP1948196B1, “USE OF TETRAORGANOSILICON COMPOUNDS” (Salama, Zoser B., priority 2005, dated 2007).
# Where two headings read alike, the source gives them in different places. Numbered stars: 1 amine (or outer) side, 2 acyl side, 3 side chain; on linkers, the order of the positions; unused ones are H or OH. Bridge positions count the residues as written; N and C are the ends. Peptide text beside a SMILES is read from it. I, II: the chains in the order shown. X2 = c1ccc([Si](O[*:1])(O[*:2])c2ccccc2)cc1
# How the values were obtained:
# Lymphome = assay: Effect on lymphomas
# Hepatitis-Viren = assay: Antiviral effect; conditions: in particular as vesicles holding antisense constructs
# HT29 - Kolonkarzinom = assay: MTT assay / EZ4U test, 4 days; type: cell-based; conditions: for IC50: Homo sapiens
# Experimental: (§1) Die Silane 1, 5, 9, 10, 11, 13, 15, 16 wurden in Ethanol gelöst und in MTT Assays in einer anfänglichen Konzentration von 200 µg/ml (5 Lösungsschritte 200 - 12.5 µg/ml) verwendet. Die Platten wurde für eine Dauer.von 4 Tagen inkubiert und die Entwicklungsfähigkeit mithilfe des EZ4U Test bestimmt. Die IC50 Werte wurden ausgehend von Dosierungs-Reaktions-Linien berechnet Zelllinien: Colo 205 and HT29 - Kolonkarzinom; BxPC3 and MIAPaCa2 - Pankreaskrebs; CRO2B - karzinoid, A431 Epidermalkarzinom; normale Zellen: WI38 - humane embryonale Fibroblasten; NIH3T3 - mausartige Fibroblasten; IEC6 - mausartige Enterozyten.
# [1] = system: WI38 - humane embryonale Fibroblasten; assay: MTT assay / EZ4U test, 4 days; type: cell-based; conditions: for IC50: Homo sapiens
# Experimental: as §1
# BxPC3 - Pankreaskrebs = assay: MTT assay / EZ4U test, 4 days; type: cell-based; conditions: for IC50: Homo sapiens
# Experimental: as §1
# MIAPaCa2 - Pankreaskrebs = assay: MTT assay / EZ4U test, 4 days; type: cell-based; conditions: for IC50: Homo sapiens
# Experimental: as §1
# [2] = system: IEC6 - mausartige Enterozyten; assay: MTT assay / EZ4U test, 4 days; type: cell-based; conditions: for IC50: Rattus norvegicus
# Experimental: as §1
# Colo 205 - Kolonkarzinom = assay: MTT assay / EZ4U test, 4 days; type: cell-based; conditions: for IC50: Homo sapiens
# Experimental: as §1
# [3] = system: NIH3T3 - mausartige Fibroblasten; assay: MTT assay / EZ4U test, 4 days; type: cell-based; conditions: for IC50: Mus musculus
# Experimental: as §1
# A431 Epidermalkarzinom = assay: MTT assay / EZ4U test, 4 days; type: cell-based; conditions: for IC50: Homo sapiens
# Experimental: as §1
# CRO2B - karzinoid = assay: MTT assay / EZ4U test, 4 days; type: cell-based; conditions: for IC50: read-out: IC50 CR02B
# Experimental: as §1
# [4] = system: Kälber-Aortenendothelzellinie BKEz-7; assay: tissue or blood; type: cell-based
# Source text: Prüfung auf zytotoxisches Potential an Kälber-Aortenendothelzellinie BKEz-7
# Als Marker für eine zytotoxische Wirkung wird bei Zellen der charakterisierten Kälber-Aortenendothelzellinie BKEz-7 die Hemmkonzentration ermittelt, bei der eine 50%-ige Hemmung der Zellproliferation erfolgt (im Vergleich zu Kontrollkulturen ohne Zusatz eines Zellinhibitors). Die resultierende Reduzierung der Zellzahl um 50% wird als IC 50 ausgedrückt. Die getesteten Silanverbindungen wurden als Suspensionen auf die Kulturen gegeben und 48 Stunden bei 37°C inkubiert. Zusätzlich erfolgten morphologische Kontrollen und Vitalitätsbestimmungen mittels dem Neutralrot-Test. Mit Ausnahme des Di(dodecanoyloxy)dimethylsilans standen alle Ergebnisse der morphologischen Untersuchungen in guter Übereinstimmung. […]
# [5] = system: BxPC3 (pankreatisches Adenokarzinom); assay: MTT test, triplicate, two-fold dilutions; type: cell-based; conditions: for IC50: Homo sapiens
# Experimental: (§2) Die Silan wurden in Ethanol aufgelöst und in Zellkulturmedien in Konzentrationen von bis zu 500 µg/ml resuspendiert. Es wurden MTT Tests in dreifacher Ausführung durchgeführt, für welche doppelte Lösungen (7 Schritte) und colo205 (Kofon-Karzinom), BxPC3 (pankreatisches Adenokarzinom) sowie T47D (Brustkrebs) benutzt wurden.
# colo205 (Kofon-Karzinom) = assay: MTT test, triplicate, two-fold dilutions; type: cell-based; conditions: for IC50: Homo sapiens
# Experimental: as §2
# T47D (Brustkrebs) = assay: MTT test, triplicate, two-fold dilutions; type: cell-based; conditions: for IC50: Homo sapiens, T47D, read-out: IC50 T47D
# Experimental: as §2
# Basalzellkarzinome = assay: Effect on basal cell carcinomas
# Normale Zellen = assay: Mean IC50 over all normal cell lines; type: cell-based; conditions: for IC50: read-out: IC50 Normale Zellen (Durchschnitt ± SD)
# Experimental: as §1
# (§3) Mittelwerte-IC50 für alle Krebs- oder normalen Zelllinien: […]
# Maus = assay: Pharmacological observation in the mouse (central, vegetative and toxic effects, acute toxicity); type: in vivo
# Source text: Pharmakologische Untersuchungen an der Maus
# Die Verbindungen wurden an der Maus auf zentrale, vegetative und toxische Effekte geprüft. Durch systemische Einzelbeobachtungen sind neben der akuten Toxizität (orienberende letale Dosis, oLD) zentrale und vegetative Wirkungen der Testsubstanzen, insbesondere Effekte auf die Motorik und das Reaktionsvermögen, die Haut- und Rektaltemperatur sowie auf die Pupillenmotorik erfasst worden. Die getesteten Dosierungen betrugen 5 •10^-4, 1 • 10^-3 und 5 • 10^-3 mol/kg Körpergewicht Letale Wirkungen konnten bei keiner der Verbindungen beobachtet werden. Die oLD lag für Di(tetradecanoyloxy)dimethylsilan und Di(octadecanoyloxy)dimethylsilan unter 1 • 10^-3 mol/kg Körpergewicht für alle übrigen Verbindungen unter 5 • 10^-3 mollkg Körpergewicht.
# Krebszellen = assay: Mean IC50 over all cancer cell lines; type: cell-based; conditions: for IC50: read-out: IC50 Krebszellen (Durchschnitt ± SD)
# Experimental: as §1, §3
# [6] = system: IEC6 mausartige Enterozyten; assay: subG1 apoptotic fraction, propidium iodide, flow cytometry; type: cell-based; conditions: 50 µg/ml, 4 Tage
# Experimental: (§4) Die Zellen (IEC6 mausartige Enterozyten; Panc1 Pankreaskrebszellen; Colo205 Kolonkarzinom) wurden mit 50 µg/ml Silanen inkubiert und nach 4-tägiger Aussetzung auf DNA eingefärbt (Propidiumiodid). Die SubG1 Zellteilung wurde mittels Durchflusscytometrie bestimmt.
# Colo205 Kolonkarzinom = assay: as above; type: cell-based; conditions: 50 µg/ml, 4 Tage
# Experimental: as §4
# [7] = system: Panc1 Pankreaskrebszellen; assay: as above; type: cell-based; conditions: 50 µg/ml, 4 Tage
# Experimental: as §4
# Rhino-Viren = assay: Antiviral effect; conditions: in particular as vesicles holding antisense constructs
# Osteosarkome = assay: Effect on osteosarcomas
# [8] = COLO 205, read-out: IC50 Colo205
smiles,measurement,setting,value
C[C@H](N)C(=O)N[C@@H](C)C(=O)N[C@@H](C)C(=O)N[C@@H](C)C(=O)N[C@@H](C)C(=O)N[C@@H](C)C(=O)N[C@@H](C)C(=O)N[C@@H](C)C(=O)O[Si](OC(=O)[C@H](C)NC(=O)[C@H](C)NC(=O)[C@H](C)NC(=O)[C@H](C)NC(=O)[C@H](C)NC(=O)[C@H](C)NC(=O)[C@H](C)NC(=O)[C@H](C)N)(c1ccccc1)c1ccccc1 [Diphenyl bis(octaalanyl)silylester] (I: H-AAAAAAAA / II: H-AAAAAAAA; linker I:C-II:C via X2),Wirkung auf Lymphome,Lymphome,zeigen eine Wirkung
same,Wirkung gegen Hepatitis-Viren,Hepatitis-Viren,zeigen eine Wirkung
"CCCCCCCCCCCCCCCCCC(=O)O[Si](OC(=O)CCCCCCCCCCCCCCCCC)(c1ccccc1)c1ccccc1 [Si10, Di (octadecanoyloxy) diphenylsilan]",IC50,"HT29 - Kolonkarzinom; HT-29, 200 - 12.5 µg/ml, 4 Tage, read-out: IC50 HT29",27.5 µg/mL
same,IC50,"[1]; WI-38, 200 - 12.5 µg/ml, 4 Tage, read-out: IC50 WI38",21.8 µg/mL
same,IC50,"BxPC3 - Pankreaskrebs; BXPC-3, 200 - 12.5 µg/ml, 4 Tage, read-out: IC50 BxPC3",20 µg/mL
same,IC50,"MIAPaCa2 - Pankreaskrebs; MIA PaCa-2, 200 - 12.5 µg/ml, 4 Tage, read-out: IC50 MlAPaCa2",37 µg/mL
same,IC50,"[2]; IEC-6, 200 - 12.5 µg/ml, 4 Tage, read-out: IC50 IEC6",17.2 µg/mL
same,IC50,"Colo 205 - Kolonkarzinom; COLO 205, 200 - 12.5 µg/ml, 4 Tage, read-out: IC50 Colo205",30.6 µg/mL
same,IC50,"[3]; NIH3T3, 200 - 12.5 µg/ml, 4 Tage, read-out: IC50 NIH3T3",22.2 µg/mL
same,IC50,"A431 Epidermalkarzinom; A-431, 200 - 12.5 µg/ml, 4 Tage, read-out: IC50 A431",21.9 µg/mL
same,IC50,"CRO2B - karzinoid; 200 - 12.5 µg/ml, 4 Tage",18.5 µg/mL
same,Bedenkliche Toxizität,[4],-
same,IC50,"[4]; suspensions, 48 Stunden bei 37°C",84 µM
same,IC50,"[5]; BXPC-3, up to 500 µg/ml, read-out: IC50 BxPC3",15 µg/mL
same,IC50,"colo205 (Kofon-Karzinom); COLO 205, up to 500 µg/ml, read-out: IC50 Colo205",60 µg/mL
same,IC50,T47D (Brustkrebs); up to 500 µg/ml,15 µg/mL
same,Wirkung auf Basalzellkarzinome,Basalzellkarzinome,zeigen eine Wirkung
same,IC50,Normale Zellen; mean over normal cell lines,20.4 µg/mL
same,"zentrale, vegetative und toxische Effekte (Verhaltensänderungen)",Maus; 1•10^-3 mol/kg,"schwache Ataxie, Hyperaktivität und Piloerektion"
same,"zentrale, vegetative und toxische Effekte (Verhaltensänderungen)",Maus; 5•10^-3 mol/kg,schwache Ataxie
same,"zentrale, vegetative und toxische Effekte (Verhaltensänderungen)",Maus; 5•10^-4 mol/kg,keine Verhaltensänderungen
same,IC50,Krebszellen; mean over cancer cell lines,21.9 µg/mL
same,subG1 apoptotische Zellteilung IEC6,[6],"13,4 ± 0,42"
same,subG1 apoptotische Zellteilung Colo205,Colo205 Kolonkarzinom,"43,9 ± 1,41"
same,subG1 apoptotische Zellteilung Panc1,[7],"60,7 ± 0,2"
"CCCCCCCCCCCCCCC(=O)O[Si](OC(=O)CCCCCCCCCCCCCC)(c1ccccc1)c1ccccc1 [Si5, Di (pentadecanoyloxy) diphenylsilan]",IC50,"HT29 - Kolonkarzinom; HT-29, read-out: IC50 HT29",40 µg/mL
same,IC50,"[1]; WI-38, read-out: IC50 WI38",36.5 µg/mL
same,IC50,"BxPC3 - Pankreaskrebs; BXPC-3, read-out: IC50 BxPC3",25 µg/mL
same,IC50,"MIAPaCa2 - Pankreaskrebs; MIA PaCa-2, read-out: IC50 MlAPaCa2",38.5 µg/mL
same,IC50,"[2]; IEC-6, read-out: IC50 IEC6",32.5 µg/mL
same,IC50,Colo 205 - Kolonkarzinom; [8],43.8 µg/mL
same,IC50,"[3]; NIH3T3, read-out: IC50 NIH3T3",55 µg/mL
same,IC50,"A431 Epidermalkarzinom; A-431, read-out: IC50 A431",36.3 µg/mL
same,IC50,CRO2B - karzinoid,35 µg/mL
same,IC50,"[5]; BXPC-3, read-out: IC50 BxPC3",60 µg/mL
same,IC50,colo205 (Kofon-Karzinom); [8],70 µg/mL
same,IC50,T47D (Brustkrebs),20 µg/mL
same,IC50,Normale Zellen,41.3 µg/mL
same,IC50,Krebszellen,34 µg/mL
same,Wirkung gegen Rhino-Viren,Rhino-Viren,zeigen eine Wirkung
same,Wirkung auf Osteosarkome,Osteosarkome,zeigen eine Wirkung
same,subG1 apoptotische Zellteilung IEC6,[6],"6,35 ± 0,63"
same,subG1 apoptotische Zellteilung Colo205,Colo205 Kolonkarzinom,"3,4 ± 0,28"
same,subG1 apoptotische Zellteilung Panc1,[7],"52,8 ± 3,4"
"CCCCCCCCCC(=O)O[Si](CC)(CC)OC(=O)CCCCCCCCC [Si9, Didecanoyloxy - diethylslan]",IC50 HT29,"HT29 - Kolonkarzinom; 200 - 12.5 µg/ml, 4 Tage",41.5 µg/mL
same,IC50 WI38,"[1]; 200 - 12.5 µg/ml, 4 Tage",37.0 µg/mL
same,IC50 BxPC3,"BxPC3 - Pankreaskrebs; 200 - 12.5 µg/ml, 4 Tage",40.0 µg/mL
same,IC50 MlAPaCa2,"MIAPaCa2 - Pankreaskrebs; 200 - 12.5 µg/ml, 4 Tage",37.5 µg/mL
same,IC50 IEC6,"[2]; 200 - 12.5 µg/ml, 4 Tage",17.2 µg/mL
same,IC50 Colo205,"Colo 205 - Kolonkarzinom; 200 - 12.5 µg/ml, 4 Tage",40.6 µg/mL
same,IC50 NIH3T3,"[3]; 200 - 12.5 µg/ml, 4 Tage",34.4 µg/mL
same,IC50 A431,"A431 Epidermalkarzinom; 200 - 12.5 µg/ml, 4 Tage",29.4 µg/mL
same,IC50 CR02B,"CRO2B - karzinoid; 200 - 12.5 µg/ml, 4 Tage",31.5 µg/mL
same,IC50 BxPC3,[5]; up to 500 µg/ml,15 µg/mL
same,IC50 Colo205,colo205 (Kofon-Karzinom); up to 500 µg/ml,60 µg/mL
same,IC50 T47D,T47D (Brustkrebs); up to 500 µg/ml,40 µg/mL
same,IC50 Normale Zellen (Durchschnitt ± SD),Normale Zellen; mean over normal cell lines,"29,5 ± 10,8 µg/ml"
same,IC50 Krebszellen (Durchschnitt ± SD),Krebszellen; mean over cancer cell lines,"35,6 ± 6,0 µg/ml"
same,subG1 apoptotische Zellteilung IEC6,[6],"0,9 ± 0.0"
same,subG1 apoptotische Zellteilung Colo205,Colo205 Kolonkarzinom,"32,1 ± 1,41"
same,subG1 apoptotische Zellteilung Panc1,[7],"42,8 ± 1,6"
